Assay results from paper PMC6690934, “High-density immobilization of a ginsenoside-transforming β-glucosidase for enhanced food-grade production of minor ginsenosides” (Applied Microbiology and Biotechnology, 2019).

Target: T1, MT619 (Microbacterium testaceum, UniProt E8N6P7)
T1 construct: gene MTES_2447; codon-optimized synthetic gene (MK575514); E. coli BL21; purified by Ni and DEAE columns
T1 sequence (E8N6P7 1-619): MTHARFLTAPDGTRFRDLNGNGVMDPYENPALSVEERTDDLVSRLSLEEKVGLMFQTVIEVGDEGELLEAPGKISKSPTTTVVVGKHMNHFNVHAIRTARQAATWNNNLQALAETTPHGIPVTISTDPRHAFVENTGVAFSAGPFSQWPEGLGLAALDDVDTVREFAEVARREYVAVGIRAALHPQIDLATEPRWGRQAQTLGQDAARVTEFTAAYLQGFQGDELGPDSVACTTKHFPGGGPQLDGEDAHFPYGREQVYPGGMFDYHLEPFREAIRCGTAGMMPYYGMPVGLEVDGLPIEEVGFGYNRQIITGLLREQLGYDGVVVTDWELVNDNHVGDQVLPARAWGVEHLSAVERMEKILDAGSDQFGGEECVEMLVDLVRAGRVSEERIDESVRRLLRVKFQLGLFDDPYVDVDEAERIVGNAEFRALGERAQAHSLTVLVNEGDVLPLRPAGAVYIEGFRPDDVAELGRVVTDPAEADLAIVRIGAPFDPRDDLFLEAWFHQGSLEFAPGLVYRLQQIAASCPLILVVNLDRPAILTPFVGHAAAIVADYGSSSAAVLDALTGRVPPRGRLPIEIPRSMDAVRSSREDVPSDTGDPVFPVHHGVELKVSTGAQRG
Assay: TLC of hydrolysis products
Format: biochemical
Conditions: pH 7.0, 37 °C, 2.0 mg/mL substrate, 0.1 mg/mL enzyme

Compound: CC(C)=CCC[C@](C)(O[C@@H]1O[C@H](CO[C@@H]2O[C@H](CO)[C@@H](O)[C@H](O)[C@H]2O)[C@@H](O)[C@H](O)[C@H]1O)[C@H]1CC[C@]2(C)[C@@H]1[C@H](O)C[C@@H]1[C@@]3(C)CC[C@H](O[C@@H]4O[C@H](CO)[C@@H](O)[C@H](O)[C@H]4O[C@@H]4O[C@H](CO)[C@@H](O)[C@H](O)[C@H]4O)C(C)(C)[C@@H]3CC[C@]12C [Rb1]
- TLC of hydrolysis products: MT619 could clearly transform four major ginsenosides (Re, Rg1, Rb1, and Rd)
